Read-outs that look alike come from different tables or passages of the source.
How the values were obtained:
[1] = test system: P. falciparum strain F32-ART (artemisinin-resistant); test: microbe, parasite or virus in culture; assay type: cell-based, Plasmodium falciparum; details: for IC50: Plasmodium falciparum
From the text: The antimalarial activity of peptide-alkoxyamine hybrids was first evaluated in the in vitro antiproliferative test (IC50) using the artemisinin-resistant strain F32-ART (Table 2, Table S1). The roles of the N-substitution of the alkoxyamine moiety (TEMPO- or DBNO-based, for example, A3L/A8L, line 1/line 10), of the configuration (L or D of the peptide, A3L/A3D, line 1/line 2), of the N-protection of the peptide (A3L/A4L or A5L, line 1/ lines 3 and 5) were examined. According to standard rules in the malaria field, only molecules having IC50 values below 1 μM were considered active.
The F32-ART (artemisinin-resistant) strain and the F32-TEM (artemisinin-sensitive strain) were cultured according to Trager and Jensen in RPMI 1640 medium (Fisher Scientific, Illkirch, France) supplemented with 5% human serum (Etablissement français du Sang, Toulouse, France) at 2% hematocrit with type O human blood (Etablissement français du Sang, Toulouse, France), 37 °C, and 5% CO2 in a humidified atmosphere.
(§1) IC50 values corresponding to 50% inhibition of P. falciparum growth were determined by SYBR Green assay, and the assessment of cytotoxicity was performed on Vero cells (cell line from the kidney of a normal adult African green monkey), as previously published. The selectivity index corresponded to the cytotoxicity/activity ratio.

[2] = in vitro; assay type: cell-based, African green monkey; details: African green monkey, Cytotoxicity CC50
Procedure: as §1

[3] = Kinetic analysis of alkoxyamine bond homolysis by EPR; assay type: physicochemical; details: Equation (2), A = 2.4 · 10^14 s^−1
Procedure: The kinetic homolysis for peptide-alkoxyamines reported in Table 1 was recorded in EPR using two solvents, tert-butylbenzene (t-BuPh) or an n-propanol:water (1:1, v:v) mixture. The growth of nitroxide was recorded in the presence of an alkyl radical scavenger, i.e., O2 here, to suppress the back reaction (kc in Scheme 4), as already reported.
Homolysis rate constants kd are given by Equation (1) ([nitroxide]∞ = [alkoxyamine]0 = 0.1 mM), and the subsequent activation energy values Ea are given by Equation (2), as follows:(1) lnnitroxide∞−nitroxidet/nitroxide∞=−kd·t (2) Ea=−RTlnkd/A

[4] = Thermolysis of A8L in DMSO with or without hemin, LC-MS; assay type: physicochemical; details: 80 °C, 1 h
Procedure: Since a putative antimalarial mechanism of action of these hybrid drugs was the alkylation of heme within the parasite food vacuole, the reactivity of the hybrid having the lower IC50 value, namely A8L (Table 2), was evaluated in the presence (or absence) of heme. In the absence of any protease activity able to cleave the tripeptide fragment, the alkoxyamine C–O bond was stable at room temperature; thus, thermolysis was carried out in DMSO at 80 °C for 1 h under an air atmosphere to achieve a nearly complete reaction (88–90% of conversion of A8L). The reaction was monitored by LC-MS analysis, and products A–F were detected and quantified (Figure 4). […] Products B, C, and D, resulting from the capture of dioxygen by the alkyl radical, were the major ones, with yields of 30%, 13%, and 21%, respectively, with respect to the starting amount of A8L. B and C have already been detected as thermolysis products of uncoupled alkoxyamine.
In a test tube equipped with a magnetic stirrer, 20 μL of a stock solution of A8L (10 mM in DMSO) was added to 180 μL of DMSO. […] Retention times and detected m/z values (amu) were as follows: JP2310, 20.8 min, 758.5 (MH^+), 702.4 (fragment); A, 27.4 min, 615.4 (MH^+); B, 21.2 min, 629.3 (MH^+); C, 20.1 min, 631.4 (MH^+); D, 20.3 min, 647.3 (MH^+); F, 25.7 min, 613.3 (MH^+); hemin, 17.3 min, 616.2 (M^+).

[5] = test system: F32-ART parasites at the quiescent stage; test: Quiescent-stage Survival Assay (QSA); assay type: cell-based, Plasmodium falciparum; details: 700 nM DHA 6 h/(DHA + molecule 7 µM) 48 h
Procedure: In this assay, parasites were exposed to dihydroartemisinin (DHA) alone to induce quiescence, prior the addition of the drug to be tested for 48 h, and then the parasite recrudescence was monitored over a maximum of 4 weeks. Activity against quiescent parasites was evidenced by a delay in recrudescence time over 6 days between the conditions “DHA 6 h / DHA 48 h” and “DHA 6 h/(DHA + molecule) 48 h”. Atovaquone was used as a positive control, and its activity against quiescent parasites was here confirmed, as expected, by an extended delay of 11 days in recrudescence time (Figure 5). By contrast, no activity of A8L and A3L against quiescent parasites was evidenced in the QSA, with similar recrudescence time between the conditions “DHA 6 h/DHA 48 h” and “DHA 6 h/(DHA + molecule) 48 h”. […] To understand this phenomenon, we explored the parasite response during treatment with these hybrid compounds.
The QSA was performed according to Reyser et al.. Briefly, ART-resistant ring-stage parasites at 3% parasitemia were exposed for 6 h to 700 nM of DHA (dihydroartemisinin) to induce quiescence or were exposed to no drugs (control condition). After that, the compound to be tested was added in both conditions […]. At the end of the treatment, the drugs were washed off with RPMI-1640, and parasites were replaced in drug-free conditions. Blood smears were performed to follow parasitemia until the day the cultures reached their starting parasitemia, defined as the recrudescence day. If after 30 days no parasite recrudescence was observed, then the data were censored. Data analysis was performed using Kaplan–Meier survival curves. Statistical significance was ascertained by using a log-rank (Mantel-Cox) test using GraphPad Prism 7 software (San Diego, CA, USA).

[6] = test system: F32-ART parasites; test: Parasitemia monitoring and parasite morphology upon drug exposure, F32-ART ring-stage parasites; assay type: cell-based, Plasmodium falciparum; details: 48 h exposure
Procedure: (§2) The effect of hybrid compounds against Plasmodium parasites was assessed by the microscopic examination of parasite morphology upon drug exposure. For this purpose, parasites were synchronized at 0–4 h age by percoll-sorbitol treatment, 0–24 h age by sorbitol treatment, or at schizont stage by percoll treatment at the start of the experiment. Different treatment schedules were tested. In the case of multiple doses, parasite cultures were washed before each new drug addition.

[7] = test system: F32-TEM parasites (artemisinin-sensitive); test: Parasitemia monitoring with different treatment schedules, F32-TEM parasites; assay type: cell-based, Plasmodium falciparum
[8] = test system: P. falciparum parasites at the schizont stage; test: Efficacy on the re-invasion step, post-percoll schizonts treated 15 h; assay type: cell-based, Plasmodium falciparum
Procedure: We wondered if this activity was due to a specific effect of the drug toward the schizont stage and re-invasion step of the parasite life cycle. However, treatment of parasites at the schizont stage for 15 h with A8L had no effect on parasite viability or development (Figure 8), highlighting that the mechanism of action of A8L has yet to be identified.
as §2

## CC(ON(C(C)(C)C)C(C)(C)C)c1ccc(NC(=O)[C@H](Cc2ccccc2)NC(=O)[C@@H](NC(=O)[C@H](Cc2ccccc2)NC(=O)OC(C)(C)C)C(C)C)cc1 (stereo partly shown) [A8L]
[1]; F32, read-out: Antiplasmodial Activity IC50, strain F32-ART, SYBR Green assay, mean ± SEM of 3 to 6 experiments
  IC50: 270 ± 40 nM
[1]; F32, read-out: Antiplasmodial IC50, strain F32-ART
  IC50: 300 nM
[1]; cytotoxicity (Vero cells)/antiplasmodial activity (F32-ART) ratio
  Selectivity Index CC50/IC50: >185
[2]
  CC50: > 50000 nM
[3]; in t-BuPh
  activation energy Ea: 28.9 kcal/mol
[3]; in water/n-PrOH 1/1 v/v
  activation energy Ea: 28.9 kcal/mol
[4]; A8L/hemin molar ratio 1/1
  conversion of A8L on thermolysis: 88–89%
[4]; air, absence of hemin
  conversion of A8L on thermolysis: 88–90%
[5]
  activity against quiescent parasites in the QSA: no activity
[6]
  effect on parasitemia and parasite cell cycle: cytostatic-like effect
[7]; F32-TEM, 5 µM 48 h
  effect on parasite cell cycle: cytostatic-like effect
[7]; once or twice a day for three days
  effect of repeated exposure for at least three days: elimination of parasites in a dose-dependent manner
[8]
  effect on parasite viability or development: no effect

From publication PMC10974622, “Hybrid Peptide-Alkoxyamine Drugs: A Strategy for the Development of a New Family of Antiplasmodial Drugs” (Molecules, 2024)
